Paper PMC6749364, “Pharmacokinetics and Tissue Distribution of Alnustone in Rats after Intravenous Administration by Liquid Chromatography-Mass Spectrometry” (Molecules, 2019)

What was measured:
neuraminidase = system: neuraminidase; parameters: method as in PMID 20014777; settings: cited from earlier work
[1] = obtained by our previous pharmacological experiment; cited from earlier work
[2] = Tissue distribution study after intravenous administration; assay type: in vivo, Sprague-Dawley rats; settings: rats, i.v. 5 mg/kg; for Kp at 0.5 h / Kp at 1 h / Kp at 4 h / Kp at 2 h: n = 5
Description: The rat was sacrificed quickly by decapitation on the ice. The various tissues (heart, liver, spleen, lung, kidney, brain, stomach, intestine) were harvested and rinsed with ice-cold 0.9% NaCl to remove the superficial blood. After being blotted dry with filter paper, each tissue sample was weighed on ice and physiological saline added ([…]) to homogenize. Then, a 100 μL (equivalent to 50 mg) of tissue homogenate was taken and processed using the same method as the plasma samples processing method as shown in the above steps.
The mobile phase consisted of methanol and 0.1% formic acid water using a gradient dilution at a flow rate of 0.3 mL/min. The column temperature was maintained at 30 °C. Alnustone was quantitatively determined with MRM in the positive ion mode, and nitrogen was used to assist nebulization in the ESI source. The MS parameters were set as follows: The ionspray voltage (IS) 5500 V; nebulizer gas (gas 1) 19 arbitrary units; curtain gas (CUR) 10 arbitrary units; collision cell exit potential (CXP) 7.0 V; entrance potential (EP) 10.0 V. The optimization of the MS transitions using the multiple-reaction monitoring (MRM) mode were accomplished as alnustone m/z 262.9→105.2 and IS (caffeine) m/z 195.2→138.0, respectively.
For the tissue distribution study, 20 SD rats were randomly divided into four groups (5 rats for each time point) and fasted for 12 h with free access to water prior to administration. After the rats were tail intravenously administrated of alnustone (5 mg/kg), the tissue specimens (heart, liver, spleen, lung, kidney, brain, stomach and intestine) were collected at 0.5, 1, 2, and 4 h post-dosing, respectively. The blank tissues were prepared separately using drug-free SD rats. The tissue harvesting and homogenizing method were given in Section 3.5. For the plasma and tissue homogenate sample preparation method, also see Section 3.5.

[3] = Plasma pharmacokinetic study after single intravenous administration; assay type: in vivo; settings: Sprague-Dawley, rat, rats, single i.v. 5 mg/kg
Description: In this study, a direct protein precipitation method was applied to extract alnustone and IS from the biological matrix. An aliquot 100 μL of plasma, 50 μL of IS solution (1 μg/mL) and 200 μL of precipitate agent acetonitrile with 0.5% formic acid was added into a 1.5 mL Eppendorf tube. The mixture was vortex-mixed for 30 s at room temperature, and centrifuged at 12,000× g for 10 min. […] The residuals were reconstituted in 100 μL of methanol-0.1% fomic acid water (20:80, v/v) by vortex mixing for 30 s. After centrifuging at 12,000× g for 10 min, a 10 μL aliquot of the supernatant was used for the UHPLC-MS/MS analysis. The mobile phase consisted of methanol and 0.1% formic acid water using a gradient dilution at a flow rate of 0.3 mL/min. The column temperature was maintained at 30 °C. Alnustone was quantitatively determined with MRM in the positive ion mode, and nitrogen was used to assist nebulization in the ESI source. The MS parameters were set as follows: The ionspray voltage (IS) 5500 V; nebulizer gas (gas 1) 19 arbitrary units; curtain gas (CUR) 10 arbitrary units; collision cell exit potential (CXP) 7.0 V; entrance potential (EP) 10.0 V. The optimization of the MS transitions using the multiple-reaction monitoring (MRM) mode were accomplished as alnustone m/z 262.9→105.2 and IS (caffeine) m/z 195.2→138.0, respectively. For the pharmacokinetic study, 12 SD rats fasted for 12 h with free access to water prior to administration. After the rats were tail intravenously administrated of alnustone (5 mg/kg), a blood sample (0.4 mL) was collected from the orbital vein into heparinized tubes at appropriate time intervals (2 min, 5 min, 10 min, 15 min, 30 min, 45 min, 1 […]). The blank plasma samples were prepared before dosing. All blood samples were immediately centrifuged at 12,000× g for 10 min and stored at -75 °C until analysis. The pharmacokinetic parameters were evaluated using DAS 3.2.8 pharmacokinetic program.

[4] = Sprague-Dawley, rat, iv, Intestine
[5] = Sprague-Dawley, rat, iv, Kidney
[6] = Sprague-Dawley, rat, iv, Spleen
[7] = Sprague-Dawley, rat, iv, Stomach

## O=C(/C=C/C=C/c1ccccc1)CCc1ccccc1 [alnustone, Alnustone]
neuraminidase
  neuraminidase inhibitory activity: showed neuraminidase inhibitory activity
[1]
  LD50: 200 mg/kg
[2]; Sprague-Dawley, rat, iv, Brain
  Kp at 0.5 h: 0.11 ± 0.4
  Kp at 1 h: 0.21 ± 0.56
[2]; Sprague-Dawley, rat, iv, Brain, 4 h
  Kp at 4 h: 1.03 ± 0.08
[2]; Sprague-Dawley, rat, iv, Heart
  Kp at 0.5 h: 0.36 ± 0.06
  Kp at 1 h: 0.42 ± 0.1
  Kp at 2 h: 0.59 ± 0.17
[2]; Sprague-Dawley, rat, iv, Heart, 4 h
  Kp at 4 h: 1.78 ± 0.24
[2]; [4]
  Kp at 0.5 h: 0.39 ± 0.07
  Kp at 1 h: 0.66 ± 0.12
  Kp at 2 h: 0.88 ± 0.19
[2]; Sprague-Dawley, rat, iv, Intestine, 4 h
  Kp at 4 h: 1.18 ± 0.2
[2]; [5]
  Kp at 0.5 h: 0.58 ± 0.07
  Kp at 1 h: 0.74 ± 0.11
  Kp at 2 h: 1.49 ± 0.27
[2]; Sprague-Dawley, rat, iv, Kidney, 4 h
  Kp at 4 h: 1.86 ± 0.18
[2]; Sprague-Dawley, rat, iv, Liver
  Kp at 0.5 h: 1.28 ± 0.34
  Kp at 1 h: 1.31 ± 0.18
  Kp at 2 h: 1.28 ± 0.29
[2]; Sprague-Dawley, rat, iv, Liver, 4 h
  Kp at 4 h: 5.48 ± 0.66
[2]; Sprague-Dawley, rat, iv, Lung
  Kp at 0.5 h: 1.3 ± 0.09
  Kp at 1 h: 3.39 ± 0.39
  Kp at 2 h: 4.55 ± 0.61
[2]; Sprague-Dawley, rat, iv, Lung, 4 h
  Kp at 4 h: 15.8 ± 1.33
[2]; [6]
  Kp at 0.5 h: 0.46 ± 0.06
  Kp at 1 h: 1.24 ± 0.13
  Kp at 2 h: 0.7 ± 0.06
[2]; Sprague-Dawley, rat, iv, Spleen, 4 h
  Kp at 4 h: 1.54 ± 0.32
[2]; [7]
  Kp at 0.5 h: 0.64 ± 0.14
  Kp at 1 h: 0.52 ± 0.11
  Kp at 2 h: 0.7 ± 0.03
[2]; Sprague-Dawley, rat, iv, Stomach, 4 h
  Kp at 4 h: 3.66 ± 0.27
[2]; Sprague-Dawley, rat, iv, brain, 4 h
  concentration at 4 h: 567 ng/mL
[2]; brain
  highest mean concentration in tissue: 344.27 ng/g
  time of maximum tissue concentration: 1 h
[2]; heart
  highest mean concentration in tissue: 900.97 ng/g
[2]; intestine
  highest mean concentration in tissue: 1099.14 ng/g
  time of maximum tissue concentration: 1 h
[2]; kidney
  highest mean concentration in tissue: 1450.43 ng/g
[2]; liver
  highest mean concentration in tissue: 3199.49 ng/g
[2]; lung
  highest mean concentration in tissue: 5685.40 ng/g
  time of maximum tissue concentration: 1 h
[2]
  blood-brain barrier penetration: could enter the brain through the blood-brain barrier
[2]; spleen
  highest mean concentration in tissue: 2077.14 ng/g
  time of maximum tissue concentration: 1 h
[2]; stomach
  highest mean concentration in tissue: 1588.90 ng/g
[3]
  Tmax: 2 min
[3]; n = 12
  AUC(0-inf): 6030 ± 472 ng·h/mL
  Cmax: 7070 ± 821 ng/mL
  Vd: 1.57 ± 0.18 L/kg
  clearance: 13.8 mL/min/kg
  half-life: 1.31 ± 0.19 h
[3]; n = 12, read-out: MRT0–∞
  MRT inf: 1.6 ± 0.22 h
[3]; read-out: MRT0-t (total mean residence time up to 10 h)
  MRT last: 1.6 ± 0.22 h
[3]; up to 10 h, n = 12
  AUC(0-t): 6010 ± 567 ng·h/mL
